The record followed here is patent US9096853B2, “Modified siRNA molecules incorporating 5-fluoro-2′-deoxyuridine residues to enhance cytotoxicity” (U.S. Department of Veterans Affairs, priority 2012, dated 2015).

d = 2'-deoxy (DNA); r = 2'-OH (RNA)

For series [1], the system named is human colon cancer RKO cell line. The experiment in a line: Clonogenic assay in RKO cells. The class given is cell-based. The following applies: 6 hr exposure, colonies counted after 8 days, mean ± S.D., at least 3 experiments.
In series [2] the test system is TS mRNA sequence in opposite orientation targeted by the sense (passenger) strand. The experiment in a line: Luciferase assay, vector with TS6 target site for the sense strand. The following applies: RKO cells, ssiRNA 0.1 nM, 24 hr. The class given is cell-based, human. The procedure: FIG. 3 illustrates the effect of 3′-end modification on ssiRNA strand selection. RKO cells were transfected with luciferase vectors (including the TS6 target site for either the antisense (open bars) or sense strand (hatched bars)) in combination with ssiRNAs containing different 3′-end overhangs. After 24 hr, cells were harvested and luciferase activity was determined as described in the Materials and Methods section. Firefly/renilla luciferase activity from vector-alone transfection was normalized to 100%. All values represent the mean±S.D. from at least 4 separate experiments performed in duplicate;
FIGS. 4A-C illustrate the effect of 3′-end dU incorporation on ssiRNA strand selection. RKO cells were transfected with various TS6 ssiRNAs (1 nM) for 6 hr. After an additional 48 hr, cells were harvested for immunoblot (A) and qPCR (B) analysis. (C) Luciferase vectors (containing the siRNA target site for either the sense or antisense strand) were transfected into RKO cells in combination with different ssiRNAs. After 24 hr, cells were harvested and luciferase activity was determined as described in the Materials and Methods section. Luciferase activity from vector-alone transfection was normalized to 100%. All values represent the mean±S.D. from at least 4 separate experiments performed in duplicate;
A DNA oligonucleotide corresponding to the TS6 siRNA target sequence (TS mRNA nt 1058-1077: 5′-[…]-3′- SEQ ID NO: 23) was annealed to its complimentary antisense sequence and ligated into the pGL3-Promoter plasmid (Promega; Madison, WI) at restriction sites Hind III and Nco I. The luciferase mRNA expressed from this plasmid was targeted by the antisense strand of TS6 siRNA. A second plasmid was constructed with the TS mRNA sequence inserted in the opposite orientation so that it could be targeted by the sense or passenger strand of TS6 siRNA. […] After 24 hr, cells were washed with PBS, lysed in 1×PLG buffer, and firefly and renilla luciferase levels were determined by the Dual-Luciferase™ Reporter Assay system (Promega). […]

Series [3] deals with p53, Fas, cleaved PARP, γH2AX, p-ATM. The series can be described thus: Immunoblot of DNA damage and apoptosis signaling proteins, time course. In kind it is cell-based, human. The conditions noted are these: RKO cells, ssiRNA 10 nM, 0-72 hr. On the procedure:
FIG. 5 illustrates time-dependent effects of FdU-containing ssiRNAs on protein expression. RKO cells were transfected with various TS6 ssiRNAs (10 nM). After 6 hr, the medium was replaced, and cells were harvested for immunoblot blot analysis at the following times: before39 transfection (pre) and 0, 24, 48, and 72 hr after transfection. Images shown are representative blots from at least 4 different experiments; and
Protein concentrations of cell lysates were determined using the DC Protein Assay (Bio-Rad; Hercules, Calif.). Equal amounts of protein (30 μg) from each cell lysate were resolved on SDS-PAGE using the method of Laemmli (Reference 19) and transferred onto 0.45 μm nitrocellulose membranes (Bio-Rad). Membranes were blocked and incubated overnight with primary antibodies at 4° C. The following antibodies were used in the experiments: anti-TS (Clone 4H4B1; Invitrogen), anti-TS (#5449; Cell Signaling; San Francisco, Calif.), anti-p21 Waf1/Cip1 (#2947; Cell Signaling), anti-p53 (#sc-126; Santa Cruz Biotechnology; Santa Cruz, Calif.), anti-PARP (#9542; Cell Signaling), anti-Fas (#4233; Cell Signaling), anti-phospho-histone H2A.X (Ser139) (#2577; Cell Signaling), anti-histone H2A.X (#7631; Cell Signaling), anti-phospho-ATM (pS1981; EPITOMICS Inc.; Burlingame, Calif.), anti-ATM (#A1106; Sigma), and anti-α-tubulin (EMD Biosciences; San Diego, Calif.). After multiple TBST washes (1×TBS, 0.1% Tween-20), membranes were incubated with corresponding horseradish peroxidase-conjugated secondary antibodies (Bio-Rad) for 1 hr at room temperature. Proteins were detected by the enhanced chemiluminescence method (SuperSignal West Pico substrate; Pierce; Rockford, Ill.). Quantitation of signal intensities was performed by densitometry on a Xerox scanner using NIH IMAGEJ software.

Series [4] deals with thymidylate synthase (TS) protein. The series can be described thus: Immunoblot analysis of TS protein (free and ITC-bound), Odyssey quantitation. The conditions noted are these: RKO cells, ssiRNA 10 nM, pre vs. 0 hr. The class given is cell-based, human. In general terms: A western blot detects proteins with antibodies after separation by electrophoresis.

As a reminder, the IC50 is the concentration at which inhibition is half-maximal. As for “TS6-dU/dA: unmodified TS-targeted ssiRNA, 5 dU on 3′-end of sense strand, 5 dA on 3′-end of antisense strand; SEQ ID NO: 3 and 4 (sense GGAUAUUGUCAGUCUUUAGGUUUUU; antisense CCUAAAGACUGACAAUAUCCAAAAA; sense: sugars from the 5' end r20 d5, backbone and T or U not given here; antisense: sugars from the 5' end r20 d5, backbone not given here)”, the IC50 in series [1] turned out to be 1.77 nM. The “sense strand targeting, luciferase (in words)” value in series [2] is listed as “significantly reduced”. In series [3], the “biomarkers of DNA damage, γH2AX and p-ATM” value is “little to no effect”. Further, the “TS protein levels immediately after transfection” value in series [4] was “minimally affected”.
